“And” between values parts separate entries of the source, which are not always exact repeats. Identical values can stand only once.
Key:
[1] = Fluorescence measurements; assay type: physicochemical; conditions: excitation 720 nm, emission 770-850 nm
Procedure: Fluorescence measurements: Fluorescence intensity of different concentrations of free ICG dye and J-aggregates was recorded using a Tecan Safire^2™ (Mannendorf, Switzerland) fluorescence microplate reader. Both free ICG dye and J-aggregate particles were excited at 720 nm with an emission at 770 nm. The fluorescence emission spectrum was recorded from 770 to 850 nm with a step size of 2 nm.

[2] = Photoacoustic signal relative to whole blood; parameters: species or system sheep; conditions: 20 μM, excited at 895 nm, PTFE tubing
Procedure: Photoacoustic Measurement: The 96-well plate was secured to the bottom of a plastic water reservoir. The reservoir was filled with deionized water, completely submerging the sample. For comparison of smaller volumes, 2-inch segments of 24-gauge PTFE tubing ([…]) was filled with various samples. The tubes were placed in a clear acrylic chamber submerging the samples in deionized water. A single element piezoelectric 35 MHz or 5 MHz focused transducer (V326, Olympus, Mass., USA) was fixed at 12 mm or 45 mm above each sample with their functional element submerged in deionized water. […] The photoacoustic signal recorded from the transducer is sent to a 20/40db amplifier (HVA-200M, Femto) from there the signal is recorded through a lock-in amplifier (Zurich Instruments, Zurich, Switzerland) triggered on each laser pulse using a photodiode placed near the laser source. […] The absolute amplitude of each waveform was calculated, averaged, and normalized to the signal recorded from India ink or whole sheep's blood containing anticoagulant.
To explore the possibility of using JAAZ in vivo, the photoacoustic signal was compared to whole blood. […] PA signals were recorded from each sample and the signal amplitude was normalized to the whole-blood PA-signal amplitude (FIG. 5D). […]
The in-vitro photoacoustic (PA) properties of the N-JAAZ particles were further evaluated. […]

[3] = Phantom PA spectra on TriTom imaging system; conditions: 0.4 mM in microcuvette tubes
Procedure: (§1) We first acquired multiwavelength images of microcuvette tubes containing 0.4 mM of ICG dye or RGD-JAAZ particles to evaluate the PA spectra of both contrast agents. […] For in vivo imaging experiments, multispectral PAI were acquired in two female nu/nu nude mice at various timepoints (0, 10, 90 min) following tail-vein administration of ICG dye and RGD-JAAZ particles (FIGS. 39A-39D). A pre-injection baseline PA signal at 895 nm was also acquired for reference (FIG. 39B). […] Molecular maps were generated from a linear spectral unmixing of the multiwavelength PA images using previously reported spectra for hemoglobin and the measured spectra of the RGD-JAAZ particles at their injection concentration.

in vivo = experiment: in vivo
Procedure: as §1

fluorescence emission [1]: recordable fluorescence intensity
half-life (in vivo; female, nu/nu nude, mouse, in vivo): 1.19 ± 0.45 min
Compound: CC1(C)C(/C=C/C=C/C=C/C=C2\N(CCCCS(=O)(=O)O)c3ccc4ccccc4c3C2(C)C)=[N+](CCCCS(=O)(=O)[O-])c2ccc3ccccc3c21 [ICG, Indocyanine Green]
PA signal relative to whole blood [2]: ~0.03 x
peak PA signal wavelength (phantom) [3]: 740 nm and 780 nm
Contrast-to-noise ratio (in vivo; blood vessels, 90-minutes post-injection, n=2): 1.59

— US20230118682A1, “MODIFIED J-AGGREGATES AND CONJUGATES THEREOF” (GEORGE MASON UNIVERSITY, priority 2021, published 2023)
